The target in data set [1] is Canalicular multispecific organic anion transporter 1/Solute carrier organic anion transporter family member 1B1 (Homo sapiens, UniProt Q92887+Q9Y6L6). Nature of the data set: TP_TRANSPORTER: Transepithelial Transport (basal to apical) in OATP1B1/MRP2 double transfected MDCKII cells. The class given is functional, cell-based. To be noted: dog, mdck-ii.
Data set [2] addresses T1, Broad substrate specificity ATP-binding cassette transporter ABCG2 (Homo sapiens, UniProt Q9UNQ0).
T1 sequence (Q9UNQ0 whole entry): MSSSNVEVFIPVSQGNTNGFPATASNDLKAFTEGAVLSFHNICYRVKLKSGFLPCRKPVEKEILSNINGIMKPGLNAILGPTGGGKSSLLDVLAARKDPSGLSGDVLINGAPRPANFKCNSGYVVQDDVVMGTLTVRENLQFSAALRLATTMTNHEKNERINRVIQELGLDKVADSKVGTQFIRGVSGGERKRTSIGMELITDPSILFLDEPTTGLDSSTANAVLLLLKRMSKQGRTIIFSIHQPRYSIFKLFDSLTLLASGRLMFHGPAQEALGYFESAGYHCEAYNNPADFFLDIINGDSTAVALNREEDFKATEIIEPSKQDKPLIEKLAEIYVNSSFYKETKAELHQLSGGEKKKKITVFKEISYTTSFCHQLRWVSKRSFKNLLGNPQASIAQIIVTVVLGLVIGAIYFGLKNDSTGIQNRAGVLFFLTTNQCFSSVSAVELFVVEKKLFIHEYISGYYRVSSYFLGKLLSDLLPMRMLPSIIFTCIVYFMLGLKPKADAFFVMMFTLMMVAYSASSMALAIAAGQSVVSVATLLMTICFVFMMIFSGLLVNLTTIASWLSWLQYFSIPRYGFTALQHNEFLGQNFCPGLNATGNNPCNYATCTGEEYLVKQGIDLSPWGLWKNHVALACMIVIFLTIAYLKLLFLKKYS
Nature of the data set: TP_TRANSPORTER: Transepithelial Transport (basal to apical) in OATP1B1/BCRP double transfected MDCKII cells. It counts as functional, cell-based. To be noted: dog, mdck-ii.

Consider `CC[C@H](C)C(=O)O[C@H]1C[C@H](O)C=C2C=C[C@H](C)[C@H](CC[C@@H](O)C[C@@H](O)CC(=O)O)[C@H]21` [PRAVASTATIN], for which the Activity result in data set [1] and in data set [2] was “substrate [(+)]” in each case.
Consider `C[C@]12CC[C@@H]3c4ccc(O)cc4CC[C@H]3[C@@H]1CC[C@@H]2O[C@@H]1O[C@H](C(=O)O)[C@@H](O)[C@H](O)[C@H]1O` [ESTRADIOL 17B GLUCURONIDE], for which the Activity entry in data set [1] and in data set [2] was “substrate [(+)]” throughout.
As for `C[C@]12CC[C@@H]3c4ccc(OS(=O)(=O)O)cc4CC[C@H]3[C@@H]1CCC2=O` [ESTRONE SULFURIC ACID], the Activity entry in data set [1] and in data set [2] was “substrate [(+)]” in each case.
